Test results: patent US20220193010A1, “METHODS OF USING DIPIVEFRIN” (INSIGNIS THERAPEUTICS, INC., priority 2017, published 2022)
Structures can show the parent of a compound that is named as a salt.

Columns and labels:
[1] = Pharmacokinetic profile after single oral administration in mice (plasma epinephrine by LC/MS/MS); assay type: in vivo, C57BL6 mice; details: oral (also IM and IP) administration
Method: Male C57BL6 mice, approximately 14 weeks of age and weighing between 28 and 31 g, were placed in an anesthesia chamber and transiently anesthetized with isoflurane (Henry Schein). After approximately 5 minutes and in the absence of reflex (toe pinch), mice were bled via retro-orbital sinus at t=0 (pre-dose). […] Following oral administration, mice were then retro-orbital bled under anesthesia at the following time points post-dose: 15, 30, 1 h, 2 h, 4 h, and 6 h. About 45 μl of the diluted plasma was recovered and plated. The plasma samples were analyzed for epinephrine using a validated LC/MS/MS method (Keystone Bioanalytics, North Wales Pa.).

[2] = system: B16-F10 syngeneic melanoma tumors; assay: Subcutaneous B16-F10 syngeneic melanoma tumor model, oral dipivefrin as single agent; assay type: in vivo, C57BL/6J mice; details: for MST (median survival time): vehicle 17.0
Excerpt: The treatments were started 7 days before tumor inoculation per study design (day −7).
The endpoints of the study included the following: tumor growth inhibition (TGJ); reduction in median tumor volume on a given day; survival of all animals will be followed and Median Survival Time (MST) and increase in life-span (ILS) will be calculated for each group.
The percent tumor growth inhibition (TGJ %) is an indication of antitumor effectiveness, and is expressed as: TGJ (%)=100× (1-TIC), in which T and C are the mean tumor volume of the treated and control groups, respectively, on a given day.
The endpoint for each mouse is either a tumor volume >3000 mm^3 or the animal is in extreme discomfort (such as pain, seizure, difficulty breathing, etc.). The increase in life-span (ILS) is calculated as follows: ILS (%)=100× [(Median Survival Time of drug treated group/Median Survival Time of vehicle group)−1] (%)
Female C57BL/6J mice (Shanghai Lingchang Bio-Technology Co. Ltd (LC, Shanghai, China; Animal Certificate No.: 2013001825675) were used in the study. At inoculation, mice were 7-8 weeks old with a body weight of 16.2-18.6 g. The mice were kept in an Individually Ventilated Cage (IVC) system at constant temperature (22˜24° C.) and humidity (60-70%) with 5 animals in each cage. Animals had free access during the entire study period to a standard mouse diet (a Co^60 irradiation-sterilized dry granule food) and water.
The test articles used in the study were dipivefrin hydrochloride (1.9 mg/ml freebase, pre-formulated dosing solution) or the vehicle (purified water containing 0.005% wt of benzalkonium chloride as preservative). Each was stored at 4° C. The B16-F10 tumor cells were maintained in vitro as a monolayer culture in DMEM medium supplemented with 10% fetal bovine serum at 37° C. in an atmosphere of 5% CO2 in air. The tumor cells were routinely subcultured twice per week. The cells growing in an exponential growth phase were harvested and counted for tumor inoculation.
Each mouse was inoculated subcutaneously at the right flank region with 2×10^5 B16F10 tumor cells in 0.1 ml of PBS for tumor development. The treatments were started 7 days prior to the inoculation. The test article was administered to the tumor-bearing mice according to the predetermined regimen as shown in the Study Design Table 3. The date of tumor cell inoculation was denoted as day 0.
First grouping: On day 7, all 30 animals were weighed and the body weight was used as numeric parameter to randomize selected animals into two groups in an effort to minimize systematic error.
Second grouping: On day 8, all 20 animals in group-1 were randomized into two groups (1a and 1b) based on tumor volume. Dose administrations were performed as shown Table 5.
After tumor cell inoculation, animals were checked daily for morbidity and mortality. At the time of routine monitoring, the animals were checked for any effects of tumor growth and treatments on normal behavior such as mobility, food and water consumption, body weight gain/loss (body weights were measured twice or thrice per week), eye/hair matting and any other abnormal effect. Death and observed clinical signs were recorded on the basis of the numbers of animals within each subset.
Tumor volumes were measured twice or thrice per week in two dimensions using a caliper, with the volume in mm^3 estimated using the formula: V=0.5 a×b^2 where a and b are the long and short perpendicular diameters of the tumor, respectively. The procedures of dosing as well as tumor and body weight measurement were conducted in a Laminar Flow Cabinet.
On day 17, mice which tumor volumes exceeded 3000 mm^3 were euthanized and the whole study was terminated on day 19. Additionally, mouse #15 in group 1-b was dead on day 13 due to an operation error, while mouse #7 in group 1-a was found dead on day 18 due to tumor ulceration. […]

[3] = system: influenza A/California/04/2009 (H1N1pdm) virus; assay: Influenza A (H1N1pdm) virus infection in mice, single oral dose; assay type: in vivo, C57BL/6J mice; details: for body weight loss during infection vs placebo: single p.o. dose 8.48 mg/kg 24 hours after infection, 6-day observation, p<0.05 days 5 and 6; for body weight loss during infection vs placebo / influenza virus titers in lung tissues vs placebo: 8.48 mg/kg; for influenza virus titers in lung tissues vs placebo: day 3 or 6 p.i.
[4] = system: methicillin-resistant Staphylococcus aureus (MRSA) NRS71-Sanger 252; assay: Peritonitis-sepsis model of MRSA infection; assay type: in vivo, C57BL/6J mice
Method: Two (2) groups of C57BL/6J 6 to 8 week old female mice (ca 20 g body weight) with 10 mice/group were injected IP with 2×10^8 CFU/mL of methicillin-resistant Staphylococcus aureus (MRSA) NRS71-Sanger 252 in a volume of 200 μL. The treatment group was dosed with dipivefrin 15.3 mg/kg (freebase) by oral gavage starting at t=−5 days relative to bacterial inoculation. Dosing occurred once daily up to 7 days post bacterial inoculation. Body weights were measured once per day on days 0 to 7 and the experimental endpoint was survival at 7 days. Animals falling below 20% of original weight post-infection was euthanized. Four hours (4 hours) post infection, blood was drawn from 4 animals in each group and bacterial load was determined through a standard plating assay. Each blood sample was diluted by serial log dilutions and 10 dilutions (100 to 10-s) was plated in duplicate on TSA with 5% sheep's blood. The plates were incubated for 24 hours at 37° C. at which time formed colonies was enumerated and CFU/mL was determined. One mouse in the vehicle group was found dead the next day following infection and no subsequent death occurred up to 7 days post infection. No mouse died in the treatment group up to 7 days post infection.

[5] = for clinical observations after IM injection: dose equivalent to 0.3 mg epinephrine, 3 mice per group
in vivo = assay type: in vivo, New Zealand White Rabbits
[6] = beagle dogs N=3, IM 0.3 mg, mean ± SEM
Method: Four days prior to study initiation, 1 mL of whole blood was collected from four (n=4) non-naive male Beagle dogs, aged 1.5-6.5 years and ranging from 9.8 to 10.8 kilograms in weight, into 4 chilled tubes containing K2EDTA. The blood was processed to plasma and plasma cholinesterase activity was assayed according to the Ellman method using acetylthiocholine iodide as the substrate (Ellman, G. L. et al Biochemical Pharmacology, 1961, volume 7, page 88-95). Based on the plasma cholinesterase activity assay results, the first three dogs with highest plasma cholinesterase activity were selected for the PK study.
The dogs were housed one per cage and identified by ear tags and cage labels. The animals were healthy at the start of the study. Primary enclosures were as specified in the USDA Animal Welfare Act (9 CFR, Parts 1, 2, and 3) and as described in the Guide for Care and Use of Laboratory Animals (ILAR publication, 2011, National Academy Press). Animals were fasted for a minimum of 12 hours prior to dosing and returned 4 hours post dose; Water was supplied ad libitum to the animals.
Dosing occurred at 0 hours on the appropriate day in accordance with the Study Design table (Table 11). […] The intramuscular dose was administered via 25 gauge needle and syringe into the lateral aspect of the left or right thigh. […]

[7] = human, in vivo, im; cited from earlier work

CNCC(O)c1ccc(OC(=O)C(C)(C)C)c(OC(=O)C(C)(C)C)c1 (stereo not drawn) [dipivefrin, 4-(1-hydroxy-2-(methylamino)ethyl)-1,2-phenylene bis(2,2-dimethylpropanoate)]
absorption and biotransformation into epinephrine [1]: absorbed and biotransformed into epinephrine rapidly | median tumor volume ([2]; 14 days post B16F10 inoculation, 15.3 mg/kg p.o. QD, vehicle 1060, p<0.05): 827 mm^3 | ILS (increase in life-span) ([2]; Group-1b vs vehicle group 1a, p=0.038): 12% | MST (median survival time) ([2]; Group-1b, 15.3 mg/kg p.o. from day 8): 19.0 days | MST (median survival time) ([2]; Group-2, 15.3 mg/kg p.o. from day -7): 18.0 days | ILS (increase in life-span) ([2]; Group-2 vs vehicle, p=0.175): 6% | mean tumor volume ([2]; day 19, group 1b, 15.3 mg/kg p.o. QD from day 8 (established tumor), vehicle 3668.0±311.9): 2997.2±341.6 mm^3 | reduction in mean tumor volume compared to vehicle ([2]; day 19, group 1b, dosing from day 8): about 18% | body weight loss during infection vs placebo [3]: losing less weight | influenza virus titers in lung tissues vs placebo ([3]; single p.o. dose 8.48 mg/kg): did not differ significantly | visual lung hemorrhage score (scale 0 to 4) ([3]; single p.o. dose 8.48 mg/kg, lungs day 3 and day 6 p.i.): 0-3 | lung virus titers day 6 p.i. vs day 3 p.i. ([3]; single p.o. dose 8.48 mg/kg, p<0.05): lower virus titers in lung tissues on day 6 p.i. than on day 3 p.i | survival at 7 days post infection ([4]; 15.3 mg/kg (freebase) oral gavage once daily from day -5 to day 7, 10 mice): No mouse died | blood bacterial counts ([4]; 4 hours post infection, 4 animals per group, p<0.05): significantly higher for the vehicle treated group than the drug treated group

CNC[C@H](O)c1ccc(O)c(O)c1 [epinephrine bitartrate]
mice found dead ([5]; IM epinephrine bitartrate 0.546 mg (0.3 mg freebase), approximately 20 minutes post administration): Two out of three | clinical observations after IM injection ([5]; mice): cold and lethargic approximately 5 minutes after IM injection

CNC[C@H](O)c1ccc(O)c(O)c1 [Epinephrine]
AUC(0-t) (in vivo; female, New Zealand White, rabbit, in vivo, im, 0.3 mg): 19.6 ng·h/mL | Cmax (plasma epinephrine) (in vivo; rabbits, IM 0.3 mg, mean±SEM): 50.23 ± 14.95 ng/mL | AUClast (plasma epinephrine) [6]: 147.37 ± 39.41 ng·min/mL | Tmax [7]: 1.12 ± 0.717 h

CNCC(O)c1ccc(OC(=O)C(C)(C)C)c(OC(=O)C(C)(C)C)c1 (stereo not drawn) [Dipivefrin HCl, Dipivefrin hydrochloride]
drug related deaths ([2]; 15.3 mg/kg (freebase) p.o. daily, study period): no drug related deaths were observed | effect on body weight ([2]; 15.3 mg/kg (freebase) p.o. daily, tumor-bearing mice): no effect on body weight | mean tumor volume ([2]; 5 days post B16F10 inoculation, 15.3 mg/kg p.o. QD from day -7, vehicle 16.4±2.5, p<0.01): 6.2±1.1 mm^3 | body weight loss during infection vs placebo ([3]; hydrochloride): less weight loss compared to placebos | influenza virus titers in lung tissues vs placebo ([3]; single p.o. dose 8.48 mg/kg, hydrochloride): slightly lower in treated mice compared to placebos, the difference was not statistically significant | absorption and conversion into epinephrine ([5]; mice, IM 0.636 mg): absorbed rapidly upon IM injection and quickly converted into epinephrine | clinical observations after IM injection ([5]; mice): appeared to be normal throughout the study and showed no signs of distress or illness
